The target in this experiment is T1, human SGLT2 (Homo sapiens, UniProt P31639, I433V).
T1 construct: expressed in transfected cells; host or cells: COS-7 cells (RIKEN CELL BANK RCB0539), transient electroporation with plasmid KL29
T1 sequence (P31639 1-672 I433V): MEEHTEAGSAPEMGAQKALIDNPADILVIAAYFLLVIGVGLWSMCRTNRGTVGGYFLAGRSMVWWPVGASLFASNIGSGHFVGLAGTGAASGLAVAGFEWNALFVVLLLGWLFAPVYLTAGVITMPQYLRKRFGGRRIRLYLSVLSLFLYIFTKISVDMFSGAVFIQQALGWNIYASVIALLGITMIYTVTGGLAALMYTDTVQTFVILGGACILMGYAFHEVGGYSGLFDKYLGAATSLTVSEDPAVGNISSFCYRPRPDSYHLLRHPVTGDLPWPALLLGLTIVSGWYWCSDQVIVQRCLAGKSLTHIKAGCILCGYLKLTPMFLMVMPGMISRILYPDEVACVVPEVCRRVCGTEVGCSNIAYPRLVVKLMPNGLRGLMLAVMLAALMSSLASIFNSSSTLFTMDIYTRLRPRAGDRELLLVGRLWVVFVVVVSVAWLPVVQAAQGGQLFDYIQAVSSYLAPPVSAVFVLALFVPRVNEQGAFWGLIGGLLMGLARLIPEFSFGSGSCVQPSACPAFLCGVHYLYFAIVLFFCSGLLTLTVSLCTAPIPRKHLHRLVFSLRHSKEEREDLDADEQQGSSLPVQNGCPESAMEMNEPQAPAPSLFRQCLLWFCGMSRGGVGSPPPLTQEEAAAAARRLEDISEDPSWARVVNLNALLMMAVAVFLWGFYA
The experiment is described as follows: Assay for inhibitory effect on human SGLT2 activity (uptake of methyl-α-D-glucopyranoside in COS-7 cells expressing transiently human SGLT2). The class given is cell-based. Particulars: methyl-α-D-(U-14C)glucopyranoside uptake, 37° C., 2 hours, read-out: IC50 (concentration at which 50% of methyl-α-D-glucopyranoside uptake was inhibited). On the procedure:
Assay for Inhibitory Effect on Human SGLT2 Activity
1) Construction of the Plasmid Vector Expressing Human SGLT2
Preparation of the cDNA library for PCR amplification was performed by reverse transcription of a total RNA deprived from human kidney (Ori gene) with oligo dT as the primer, using SUPERSCRIPT Preamplification System (Gibco-BRL: LIFE TECHNOLOGIES). The DNA fragment coding for human SGLT2 was amplified by the PCR reaction using Pfu DNA Polymerase (made by Stratagene), in which the human kidney cDNA library described above was used as the template and the following oligo nucleotides 0702F and 0712R, presented as Sequence Numbers 1 and 2 respectively, were used as the primers. The amplified DNA fragment was ligated into pCR-Blunt (Invitrogen), a vector for cloning, according to standard method of the kit. The Escherichia coli HB101 Competent Cell (made by TOYOBO Co., Ltd.) was transformed according to usual method and then selection of the transformants was performed on the LB agar medium containing 50 μg/mL of kanamycin. After plasmid DNA was extracted and purified from the one of the transformants, amplifying of the DNA fragment coding for human SGLT2 was performed by the PCR reaction using Pfu DNA Polymerase (made by Stratagene), in which the following oligo nucleotides 0714F and 0715R, presented as Sequence Numbers 3 and 4 respectively, were used as the primers. The amplified DNA fragment was digested with restriction enzymes, Xho I and Hind III, and then purified with Wizard Purification System (Promega). This purified DNA fragment was inserted at the corresponding restriction sites of pcDNA3.1 (−) Myc/His—A (Invitrogen), avector for expressing of fusion protein. The Escherichia coli HB101 Competent Cell (made by TOYOBO Co., Ltd.) was transformed according to usual method and then selection of the transformant was performed on the LB agar medium containing 100 μg/mL of ampicillin. After plasmid DNA was extracted and purified from this transformant, the base sequence of the DNA fragment inserted at the multi-cloning sites of the vector pcDNA3.1 (−) Myc/His—A was analyzed. […] Sequentially, a clone in which valine is substituted for isoleucine-433 was obtained. This plasmid-vector expressing human SGLT2 in which the peptide presented as Sequence Number 5 is fused to the carboxyl terminal alanine residue was designated KL29.
2) Preparation of the Cells Expressing Transiently Human SGLT2
KL29, the plasmid coding human SGLT2, was transfected into COS-7 cells (RIKEN CELL BANK RCB0539) by electroporation. Electroporation was performed with GENE PULSER II (Bio-Rad Laboratories) under the condition: 0.290 kV, 975 μF, 2×10^6 cells of COS-7 cell and 20 μg of KL29 in 500 μL of OPTI-MEM I medium (Gibco-BRL: LIFE TECHNOLOGIES) in the 0.4 cm type cuvette. […]

Each structure is given as a SMILES string.

From US7271153B2, “Nitrogenous heterocyclic derivatives, medicinal compositions containing the same, medicinal uses thereof, and intermediates therefor” (Kissei Pharmaceutical Co., Ltd., priority 2001, dated 2007) come the findings set out here.

As for `CCc1ccc(Cc2c(C)cc(C)nc2O[C@@H]2O[C@H](CO)[C@@H](O)[C@H](O)[C@H]2O)cc1` [Example 18, 3-(4-Ethylbenzyl)-2-(β-D-glucopyranosyloxy)-4,6-dimethyl-pyridine], the IC50 is 41 nM.
As for `COc1ccc(Cc2c(C)cc(C)nc2O[C@@H]2O[C@H](CO)[C@@H](O)[C@H](O)[C@H]2O)cc1` [Example 19, 2-(β-D-Glucopyranosyloxy)-3-(4-methoxybenzyl)-4,6-dimethyl-pyridine], the figure is 45 nM.
As for `Cc1cc(C)c(Cc2ccc(CCO)cc2)c(O[C@@H]2O[C@H](CO)[C@@H](O)[C@H](O)[C@H]2O)n1` [Example 20, 2-(β-D-Glucopyranosyloxy)-3-[4-(2-hydroxyethyl)benzyl]-4,6-dimethylpyridine], the figure is 45 nM; as for `COc1ccc(Cc2c(C)cc(OC)nc2O[C@@H]2O[C@H](CO)[C@@H](O)[C@H](O)[C@H]2O)cc1` [Example 21, 2-(β-D-Glucopyranosyloxy)-6-methoxy-3-(4-methoxybenzyl)-4-methylpyridine], 55 nM.
